Results published in US20060079453A1, “Hla binding peptides and their uses” (priority 2002, published 2006).
pIC50: −log10 of the molar value. No end group written: not given here.

Experiments:
Assay in all cases: biochemical
Assay type in all cases: binding
HLA-DR DRB1*0401 (DR4) = HLA-DR DRB1*0401 (DR4) (Homo sapiens, UniProt P01903+P01911, A100K/A169T/F76Y/I96L/K127E/L162R/M171V/N62H/P40V/Q125Y/R42H/S133A/S149N/S66Y/V115G/V209L/W38E); settings: DRB1 *0401
HLA-DR DRB1*0901 (DR9) = HLA-DR DRB1*0901 (DR9) (Homo sapiens, UniProt P01903+P01911, A100R/A103E/D57H/D86V/F55Y/F60I/F76Y/I96F/K127E/L162R/M171V/P40D/Q125H/Q99R/R33Q/R42F/S133A/S66N/T210M/V115G/W38K/Y107V/Y59G/Y89S); settings: DRB1 *0901
HLA-DR DRB1*0802 (DR8) = HLA-DR DRB1*0802 (DR8) (Homo sapiens, UniProt P01903+P01911, A100R/A103L/A169T/F76Y/H45Y/I96F/K41T/L162R/M171V/P40S/Q125H/Q178H/Q39Y/Q99D/R218S/R42G/S66Y/V115G/W38E)
HLA-DR DRB1*1501 (DR15) = HLA-DR DRB1*1501 (DR15) (Homo sapiens, UniProt P01903+P01911); settings: DRBI *1501
HLA-DR DRB4*0101 (DR53) = HLA-DR DRB4*0101 (DR53) (Homo sapiens, UniProt P01903+P13762, G164S); settings: DRB4 *0101
HLA-DR DRB1*0101 (DR1) = HLA-DR DRB1*0101 (DR1) (Homo sapiens, UniProt P01903+P01911, A100R/D57E/F55L/F60I/F76Y/I96L/L162R/M171V/P40L/Q125E/R42F/V115G/Y59C); settings: DRB1 *0101
HLA-DR DRB1*0701 (DR7) = HLA-DR DRB1*0701 (DR7) (Homo sapiens, UniProt P01903+P01911, A100R/A102G/A103Q/D57E/D86V/E43K/F76Y/K127E/L162R/M171V/P40G/Q125H/Q99D/R33Q/R42Y/R54Q/S133A/S66F/T210M/V115G/Y107V/Y59L/Y89S); settings: DRB1 *0701
HLA-DR DRB5*0101 (DR51) = HLA-DR DRB5*0101 (DR51) (Homo sapiens, UniProt P01903+Q30154); settings: DRB5 *0101
HLA-DR DRB3*0101 (DR52) = HLA-DR DRB3*0101 (DR52) (Homo sapiens, UniProt P01903+P79483)
HLA-DR DRB1*1101 (DR11) = HLA-DR DRB1*1101 (DR11) (Homo sapiens, UniProt P01903+P01911, A100R/A169T/A87E/I96F/K41T/L162R/M171V/P40S/Q125H/Q178H/Q39Y/Q99D/R42S/S66Y/T262R/V115G/W38E); settings: DRB1 *1101
Sequence of HLA-DR DRB1*1101 (DR11) (P01903 26-254 limits assumed, other chains not shown): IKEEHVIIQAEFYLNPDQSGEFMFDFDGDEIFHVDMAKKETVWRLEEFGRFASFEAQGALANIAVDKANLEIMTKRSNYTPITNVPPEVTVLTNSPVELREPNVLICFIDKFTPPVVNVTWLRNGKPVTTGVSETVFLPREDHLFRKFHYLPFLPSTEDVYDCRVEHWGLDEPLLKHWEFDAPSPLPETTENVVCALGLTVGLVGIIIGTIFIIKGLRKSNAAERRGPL

HLA-DR DRB1*1302 (DR13) = HLA-DR DRB1*1302 (DR13) (Homo sapiens, UniProt P01903+P01911, A100E/A169T/K41T/L162R/M171V/P40S/Q125H/Q178H/Q39Y/Q99D/R42S/S66N/T262R/V115G/W38E/Y61H); settings: DRBI *1302
Sequence of HLA-DR DRB1*1302 (DR13) (P01903 26-254 limits assumed, other chains not shown): as above

Compound	pIC50 (HLA-DR DRB1*0401 (DR4))	pIC50 (HLA-DR DRB1*0901 (DR9))	pIC50 (HLA-DR DRB1*0802 (DR8))	pIC50 (HLA-DR DRB1*1501 (DR15))	pIC50 (HLA-DR DRB4*0101 (DR53))	pIC50 (HLA-DR DRB1*0101 (DR1))	pIC50 (HLA-DR DRB1*0701 (DR7))	pIC50 (HLA-DR DRB5*0101 (DR51))	pIC50 (HLA-DR DRB3*0101 (DR52))	pIC50 (HLA-DR DRB1*1101 (DR11))	pIC50 (HLA-DR DRB1*1302 (DR13))
CSCC[C@H](NC(=O)[C@@H](NC(=O)[C@H](CCCCN)NC(=O)[C@@H](NC(=O)[C@H](C)NC(=O)[C@H](CC(=O)O)NC(=O)[C@@H](N)[C@@H](C)O)C(C)C)C(C)C)C(=O)N[C@@H](CC(=O)O)C(=O)N[C@@H](CC(C)C)C(=O)N1CCC[C@H]1C(=O)N[C@H](C(=O)N[C@@H](CCC(N)=O)C(=O)N[C@@H](CCC(=O)O)C(=O)N1CCC[C@H]1C(=O)N[C@@H](C)C(=O)O)[C@@H](C)O	< 4.10	< 3.97	4.68	< 4.34	6.13	< 4.30	< 4.38	< 3.70	< 4.87	< 4.30	< 4.46
CC[C@H](C)[C@H](NC(=O)[C@@H]1CCCN1C(=O)[C@H](CCC(N)=O)NC(=O)[C@@H](N)Cc1c[nH]c2ccccc12)C(=O)N1CCC[C@H]1C(=O)N[C@H](C(=O)N[C@@H](Cc1c[nH]cn1)C(=O)N[C@H](C(=O)N[C@H](C(=O)N1CCC[C@H]1C(=O)N[C@@H](CC(C)C)C(=O)N[C@@H](CO)C(=O)N[C@@H](CCC(=O)O)C(=O)N[C@@H](CC(=O)O)C(=O)N[C@@H](CCC(N)=O)C(=O)O)C(C)C)[C@@H](C)O)C(C)C	< 4.57	4.76	< 4.09	< 4.34	5.91	5.19	6.80	< 4.00	< 5.05	< 4.18	5.57
PEEFLRPRSLQCVSL	< 4.57	5.23	5.66	5.50	6.93	5.70	5.29	4.24	< 4.84	4.97	4.93
CC[C@H](C)[C@H](NC(=O)[C@@H](NC(=O)[C@@H]1CCCN1C(=O)CNC(=O)[C@@H](NC(=O)[C@H](CC(C)C)NC(=O)[C@H](CCC(=O)O)NC(=O)[C@H](C)NC(=O)[C@@H](N)Cc1ccccc1)C(C)C)C(C)C)C(=O)N1CCC[C@H]1C(=O)N[C@@H](CCC(N)=O)C(=O)N[C@@H](CC(=O)O)C(=O)N[C@@H](Cc1c[nH]c2ccccc12)C(=O)N[C@@H](CO)C(=O)N[C@H](C(=O)O)[C@@H](C)O		4.40	< 3.61	< 4.34	6.01	7.92	4.62	< 3.70	< 4.83	< 4.30	< 4.46
CC[C@H](C)[C@H](NC(=O)CNC(=O)[C@H](CCCNC(=N)N)NC(=O)[C@H](CCCNC(=N)N)NC(=O)[C@H](Cc1ccc(O)cc1)NC(=O)[C@H](C)NC(=O)[C@H](Cc1ccc(O)cc1)NC(=O)[C@@H](N)CCC(=O)O)C(=O)N[C@@H](C)C(=O)N[C@@H](CCC(=O)O)C(=O)N[C@@H](C)C(=O)N[C@H](C(=O)NCC(=O)N[C@@H](CC(C)C)C(=O)N1CCC[C@H]1C(=O)O)C(C)C	6.67	7.17	6.22	< 4.34	5.20	8.29	7.15	5.92	5.06	5.59	5.28
GKVFRGNKVKNAQLA	5.96	4.50	5.38	5.47	5.10	6.21	5.63		5.12	6.05	7.34
GRAVCGGVLVHPQWV	< 4.57	5.09	< 3.61	4.89	7.21	6.41	5.45	≤ 4.00	< 4.92	< 4.30	5.26
KSRLQGGVLVNEILN	< 4.57	5.26	< 4.09	< 4.52	6.15	6.44	5.55	< 4.00	< 4.83	< 4.18	6.50
PHPLYNMSLLKHQSL	6.09	5.80	5.48	5.41	7.31	4.72	4.68	5.72	< 4.83	5.19	5.48
CC[C@H](C)[C@H](NC(=O)CNC(=O)[C@H](CCC(N)=O)NC(=O)[C@H](CC(C)C)NC(=O)[C@@H](NC(=O)CNC(=O)[C@H](CC(N)=O)NC(=O)[C@H](CS)NC(=O)[C@@H](NC(=O)[C@H](CC(C)C)NC(=O)[C@@H]1CCCN1C(=O)CNC(=O)CN)C(C)C)C(C)C)C(=O)N[C@H](C(=O)N[C@@H](CO)C(=O)O)[C@@H](C)O	7.17	4.79	5.03	4.52	6.09	5.47	< 4.45	4.87	< 5.18	5.74	7.44
DFEVFFQRLGIASGR	6.66	5.70	6.91	4.99	8.38		4.66	5.45	4.51	6.89	5.00
CSCC[C@H](NC(=O)[C@H](CC(=O)O)NC(=O)[C@H](Cc1ccc(O)cc1)NC(=O)[C@H](CC(C)C)NC(=O)[C@@H]1CCCN1C(=O)[C@H](Cc1c[nH]cn1)NC(=O)[C@@H]1CCCN1)C(=O)N[C@@H](CO)C(=O)N[C@@H](CC(C)C)C(=O)N[C@@H](CC(C)C)C(=O)N[C@@H](CCCCN)C(=O)N[C@@H](CC(N)=O)C(=O)N[C@@H](CCCNC(=N)N)C(=O)N[C@@H](Cc1ccccc1)C(=O)N[C@@H](CC(C)C)C(=O)O	4.68	4.89	4.53	6.15	5.13		4.97	5.51	< 4.87	< 4.30	4.93
CC[C@H](C)[C@H](NC(=O)[C@@H]1CCCN1C(=O)[C@H](CC(=O)O)NC(=O)[C@@H](NC(=O)[C@@H]1CCCN1C(=O)[C@H](Cc1ccccc1)NC(=O)[C@@H](NC(=O)[C@H](CC(=O)O)NC(=O)[C@@H](NC(=O)[C@@H]1CCCN1C(=O)[C@H](CO)NC(=O)[C@@H](N)CCCNC(=N)N)[C@@H](C)CC)[C@@H](C)O)[C@@H](C)O)C(=O)N[C@@H](CCCCN)C(=O)N[C@@H](CCC(=O)O)C(=O)N[C@@H](CO)C(=O)O		5.21	< 3.61	5.62	6.33	< 4.30	< 4.20	4.54	< 4.84	< 3.70	< 4.46
CC(C)C[C@H](NC(=O)[C@H](CCC(=O)O)NC(=O)[C@H](CCCCN)NC(=O)[C@H](C)NC(=O)[C@H](CC(C)C)NC(=O)[C@@H](NC(=O)[C@H](CO)NC(=O)[C@H](CCCNC(=N)N)NC(=O)[C@@H](N)CC(=O)O)C(C)C)C(=O)N[C@@H](CCCCN)C(=O)N[C@@H](Cc1ccccc1)C(=O)N[C@H](C(=O)N[C@H](C(=O)N[C@@H](CC(C)C)C(=O)N[C@H](C(=O)O)C(C)C)[C@@H](C)O)C(C)C		5.33	4.80	5.87	7.28		5.70	5.65	< 4.84	4.68	5.36
